Here are results for two compounds from US20200370022A1, “MALIGNANT HEMATOPOIETIC CELL MICROCOMPARTMENT AND METHOD FOR PREPARING SUCH A MICROCOMPARTMENT” (UNIVERSITE DE BORDEAUX, priority 2017, published 2020).

The assay has as its system DLBCL SUDHL4 cells. The assay can be described thus: CellTiter-Glo 3D cell viability (intracellular ATP) after 48 h drug treatment, 2D suspension vs 3D microcompartments. The following applies: Homo sapiens, SU-DHL-4, 48 h. The assay is classed as cell-based. Here is the method: FIG. 11: Comparison of the cytotoxic effects of doxorubicin and of etoposide on DLBCL SUDHL4 cells grown in 2D (suspension) or in 3D ± ECM ± Resto. Cells or spheroids at D7 post-encapsulation are treated for 48 h with drugs. At the end of the treatment, cell viability is measured using the CellTiter-Glo® 3D Cell Viability Assay Kit (Promega).
As shown above, drug diffusion is altered in the 3D structures according to the invention. The purpose of the present experiment is to verify whether this alteration is correlated with chemoresistance. For this purpose, the efficacy of two conventional chemotherapies (doxorubicin and etoposide) was tested in parallel on cells grown in suspension (2D) and on cell clusters from cellular microcompartments according to the invention, containing lymphomatous cells alone or in the presence of ECM, with or without Resto stromal cells, treated with increasing concentrations of these chemotherapy molecules.
After 48 h of incubation, cell survival was assessed by measuring intracellular ATP using the CellTiter-Glo® 3D Cell Viability Assay Kit (Promega).
(In ATP-based viability assays light output follows the ATP content of the culture.)

Where [1] appears, read: 3D (lymphomatous cells alone), SUDHL4, D7 post-encapsulation, 48 h.
Setting [2] is: 3D + ECM + Resto, SUDHL4, D7 post-encapsulation, 48 h.
Where [3] appears, read: 3D + ECM, SUDHL4, D7 post-encapsulation, 48 h.

Each structure is given as a SMILES string. In brackets after ≈: the same amount, converted by molar mass.

The term IC50 denotes the point on the concentration scale where inhibition reaches its midpoint. For the compound `COc1cccc2c1C(=O)c1c(O)c3c(c(O)c1C2=O)C[C@@](O)(C(=O)CO)C[C@@H]3O[C@H]1C[C@H](N)[C@H](O)[C@H](C)O1` [Doxorubicin, doxorubicin], the half-inhibitory concentration (IC50) (2D (suspension), SUDHL4, 48 h) was determined as 0.09 µg/mL (≈ 0.166 µM); 0.4 µg/mL (≈ 0.736 µM) corresponded to half-maximal inhibition under setting [1] (IC50); the 50% inhibitory concentration (IC50) under setting [2] came to 0.4 µg/mL; the half-maximal inhibitory concentration (IC50) under setting [3] was 0.4 µg/mL.

For `COc1cc([C@@H]2c3cc4c(cc3[C@@H](O[C@@H]3O[C@@H]5CO[C@@H](C)O[C@H]5[C@H](O)[C@H]3O)[C@H]3COC(=O)[C@H]23)OCO4)cc(OC)c1O` [Etoposide, etoposide], the half-inhibitory concentration (IC50) came to 3.2 µg/mL (≈ 5.44 µM) (2D (suspension), SUDHL4, 48 h); 4.4 µg/mL (≈ 7.48 µM) under setting [1]; 7 µg/mL under setting [2]; 9.3 µg/mL under setting [3].
